Legend:
[1] = target: T1, phosphor-EGFR in H1975(L585R/T790M) mutant EGFR expressing cells (Homo sapiens, UniProt P00533, L858R/T790M); assay: H1975 pEGFR MSD cellular assay; type: cell-based; settings: NCI-H1975 cells, serum starved, 1 hour compound incubation, pEGFR Tyr1068 MSD; read-out: HI975 pEGFR EC50
T1 construct: host or cells: NCI-H1975
In short: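 Phospho-EGFR read by MSD electrochemiluminescence: capture with anti-pEGFR antibody (overnight, 4° C), detection with SULFO-TAG anti-total EGFR (1 hour, room temperature). Before lysis, H1975 cells starved of serum overnight got compound for 1 hour at 37° C, 0.5% DMSO final. EC50 via four-parameter logistic regression of percent inhibition.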

[2] = target: T2, EGFR del746-750 T790M (Homo sapiens, UniProt P00533, DEL746-750/T790M); assay: EGFR del746-750 T790M biochemical assay (Caliper mobility shift); settings: 5 μM ATP; apparent Ki (Morrison fit) converted by Cheng-Prusoff, Km of ATP 2.1 μM; read-out: EGFR(T790M/d746-750) Ki
T2 construct: purchased Carna Biosciences 08-528
In short: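 Caliper mobility-shift read-out, with product electrophoretically resolved from substrate and measured. Reactions were quenched with 80 mM EDTA after 30 min at 22 °C.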

[3] = test system: H1975 (EGFR T790M/L858R) cell proliferation; assay: H1975 proliferation assay (Cell Titer-Glo); type: cell-based; settings: Homo sapiens, NCI-H1975, 72 h, NCI-H1975 cells, 72 hour incubation, read-out: H1975 antiproliferative EC50
Method: H1975 Proliferation Assays
All cell culture reagents were purchased from Invitrogen/Gibco. Cells are cultured at 37° C. at 5% CO2 and split as recommended by ATCC.

[4] = target: T3, EGFR T790M L858R (Homo sapiens, UniProt P00533, L858R/T790M); assay: EGFR T790M L858R biochemical assay (Caliper mobility shift); settings: 5 μM ATP; apparent Ki (Morrison fit) converted by Cheng-Prusoff, Km of ATP 1.3 μM
T3 construct: purchased Life Technologies PV4879
In short: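 Caliper mobility-shift read-out, electrophoretic separation of substrate from product, after a 30-minute kinase reaction at 22 °C. EDTA at 80 mM terminates each reaction.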

T3 sequence (P00533 25-1210 T790M/L858R): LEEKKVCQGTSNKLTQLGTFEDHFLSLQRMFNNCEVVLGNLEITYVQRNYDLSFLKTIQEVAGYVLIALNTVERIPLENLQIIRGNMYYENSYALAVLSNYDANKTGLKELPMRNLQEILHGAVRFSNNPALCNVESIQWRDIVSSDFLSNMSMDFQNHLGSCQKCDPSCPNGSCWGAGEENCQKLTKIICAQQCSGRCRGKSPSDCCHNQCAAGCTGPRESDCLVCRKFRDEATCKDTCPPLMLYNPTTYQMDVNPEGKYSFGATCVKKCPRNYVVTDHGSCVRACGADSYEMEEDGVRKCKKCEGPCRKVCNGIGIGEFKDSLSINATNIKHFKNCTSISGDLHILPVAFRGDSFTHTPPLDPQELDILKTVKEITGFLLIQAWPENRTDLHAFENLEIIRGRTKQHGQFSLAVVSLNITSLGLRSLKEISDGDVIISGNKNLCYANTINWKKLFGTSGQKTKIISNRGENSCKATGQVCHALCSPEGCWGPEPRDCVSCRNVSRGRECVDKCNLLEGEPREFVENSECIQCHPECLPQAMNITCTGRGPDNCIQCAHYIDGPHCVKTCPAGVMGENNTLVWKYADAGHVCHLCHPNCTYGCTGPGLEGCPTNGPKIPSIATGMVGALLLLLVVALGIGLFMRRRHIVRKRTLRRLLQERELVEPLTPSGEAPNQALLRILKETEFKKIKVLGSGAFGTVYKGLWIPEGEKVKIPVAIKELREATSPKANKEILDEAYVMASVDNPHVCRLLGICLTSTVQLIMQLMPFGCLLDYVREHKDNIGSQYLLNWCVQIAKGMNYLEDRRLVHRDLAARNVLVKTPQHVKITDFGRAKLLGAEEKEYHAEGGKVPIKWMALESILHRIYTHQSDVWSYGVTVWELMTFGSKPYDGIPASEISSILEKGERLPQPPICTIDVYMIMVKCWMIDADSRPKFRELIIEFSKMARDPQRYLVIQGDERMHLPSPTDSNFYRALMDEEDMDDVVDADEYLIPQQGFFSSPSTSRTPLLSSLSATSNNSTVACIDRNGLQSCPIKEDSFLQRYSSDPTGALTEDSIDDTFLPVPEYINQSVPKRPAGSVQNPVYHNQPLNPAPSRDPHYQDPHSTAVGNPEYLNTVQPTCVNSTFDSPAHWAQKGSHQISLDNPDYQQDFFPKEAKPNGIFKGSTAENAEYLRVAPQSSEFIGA
T1 sequence (P00533 25-1210 T790M/L858R): as above
T2 sequence (P00533 with tags, fused parts or gaps DEL746-750/T790M limits assumed): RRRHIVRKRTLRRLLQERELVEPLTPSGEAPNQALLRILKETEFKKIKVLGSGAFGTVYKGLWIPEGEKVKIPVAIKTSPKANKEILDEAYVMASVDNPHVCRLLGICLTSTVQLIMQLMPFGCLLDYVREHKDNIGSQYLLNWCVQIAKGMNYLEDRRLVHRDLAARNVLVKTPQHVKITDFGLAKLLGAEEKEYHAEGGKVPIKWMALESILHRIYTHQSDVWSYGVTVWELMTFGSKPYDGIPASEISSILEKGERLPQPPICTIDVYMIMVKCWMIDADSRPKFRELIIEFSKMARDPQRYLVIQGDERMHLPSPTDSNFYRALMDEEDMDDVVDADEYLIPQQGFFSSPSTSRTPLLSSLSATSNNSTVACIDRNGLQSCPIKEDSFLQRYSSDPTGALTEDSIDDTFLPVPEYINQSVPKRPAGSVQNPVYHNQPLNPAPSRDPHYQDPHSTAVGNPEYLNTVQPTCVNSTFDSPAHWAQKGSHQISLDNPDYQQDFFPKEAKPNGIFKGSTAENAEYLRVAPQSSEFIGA

Compound `CC[C@@H](C)n1nc(N2CC3(COC3)C2)c2cnc(Nc3ccnc(OCC(C)(C)S(C)(=O)=O)n3)cc21` [Example 96, [1-((R)-sec-Butyl)-3-(2-oxa-6-azaspiro[3.3]hept-6-yl)-1H-pyrazolo[4,3-c]pyridin-6-yl]-[2-(2-methanesulfonyl-2-methylpropoxy)pyrimidin-4-yl]amine] has an EC50 [1] of 387 nM, a Ki [2] of 17.2 nM and an EC50 [3] of 1240 nM. It also gave a Ki [4] of 4.6 nM.
With `CC(C)n1nc(N2CCOCC2)c2cnc(Nc3ccnc(NCC(C)(C)S(C)(=O)=O)n3)cc21` [Example 100, N^4-(1-Isopropyl-3-morpholin-4-yl-1H-pyrazolo[4,3-c]pyridin-6-yl)-N^2-(2-methanesulfonyl-2-methylpropyl)pyrimidine-2,4-diamine] the EC50 [1] was 1060 nM, the Ki [2] was 7.2 nM and the EC50 [3] was 1260 nM. It also gave a Ki [4] of 8.7 nM.
For `CC(C)n1nc(N2CCCC2=O)c2cnc(Nc3ccnc(-c4cnn(S(=O)(=O)C5CC5)c4)n3)cc21` [Example 106, 1-(6-(2-(1-(Cyclopropylsulfonyl)-1H-pyrazol-4-yl)pyrimidin-4-ylamino)-1-isopropyl-1H-pyrazolo[4,3-c]pyridin-3-yl)pyrrolidin-2-one], the EC50 [1] was 57.8 nM, the Ki [2] was 1.6 nM and the EC50 [3] was 232 nM. It also gave a Ki [4] of 2.1 nM.
Compound `CC(C)n1nc(NC2CCS(=O)(=O)C2)c2cnc(Nc3ccnc(-c4cnn(S(=O)(=O)C5CC5)c4)n3)cc21` (centres unmarked) [Example 107, 3-((6-((2-(1-(Cyclopropylsulfonyl)-1H-pyrazol-4-yl)pyrimidin-4-yl)amino)-1-isopropyl-1H-pyrazolo[4,3-c]pyridin-3-yl)amino)tetrahydrothiophene 1,1-dioxide] has an EC50 [1] of 386 nM, a Ki [2] of 1.5 nM and an EC50 [3] of 1640 nM. For the same compound, the Ki [4] was 2 nM.
Compound `CC1CN(c2nn(C(C)C)c3cc(Nc4ccnc(-c5cnn(S(=O)(=O)C6CC6)c5)n4)ncc23)C(=O)N1` (centres unmarked) [Example 108, 1-(6-(2-(1-(Cyclopropylsulfonyl)-1H-pyrazol-4-yl)pyrimidin-4-ylamino)-1-isopropyl-1H-pyrazolo[4,3-c]pyridin-3-yl)-4-methylimidazolidin-2-one] has an EC50 [1] of 113 nM, a Ki [2] of 1.7 nM and an EC50 [3] of 377 nM. The Ki [4] was 1.9 nM.
With `CC(Nc1nn(C(C)C)c2cc(Nc3ccnc(-c4cnn(S(=O)(=O)C5CC5)c4)n3)ncc12)C(N)=O` (centres unmarked) [Example 109, 2-(6-(2-(1-(Cyclopropylsulfonyl)-1H-pyrazol-4-yl)pyrimidin-4-ylamino)-1-isopropyl-1H-pyrazolo[4,3-c]pyridin-3-ylamino)propanamide] the EC50 [1] was 788 nM, the Ki [2] was 1.3 nM and the EC50 [3] was 4620 nM. For the same compound, the Ki [4] was 1.8 nM.
`CC(C)n1nc(N2CC[S+]([O-])CC2)c2cnc(Nc3ccnc(-c4cnn(S(=O)(=O)C5CC5)c4)n3)cc21` [Example 110, 4-(6-((2-(1-(Cyclopropylsulfonyl)-1H-pyrazol-4-yl)pyrimidin-4-yl)amino)-1-isopropyl-1H-pyrazolo[4,3-c]pyridin-3-yl)thiomorpholine 1-oxide] was tested, and the EC50 [1] was 162 nM, the Ki [2] was 1.1 nM and the EC50 [3] was 835 nM. The Ki [4] was 1.7 nM.
`CC(C)n1nc(N2CCS(=N)(=O)CC2)c2cnc(Nc3ccnc(-c4cnn(S(=O)(=O)C5CC5)c4)n3)cc21` [Example 111, 4-(6-((2-(1-(Cyclopropylsulfonyl)-1H-pyrazol-4-yl)pyrimidin-4-yl)amino)-1-isopropyl-1H-pyrazolo[4,3-c]pyridin-3-yl)-1-iminothiomorpholine 1-oxide] gave an EC50 [1] of 560 nM, a Ki [2] of 1 nM and an EC50 [3] of 949 nM. For the same compound, the Ki [4] was 1.7 nM.
For `CC(C)n1nc(N2CCC3(CCNC3=O)C2)c2cnc(Nc3ccnc(-c4cnn(S(=O)(=O)C5CC5)c4)n3)cc21` (centres unmarked) [Example 112, 7-(6-((2-(1-(Cyclopropylsulfonyl)-1H-pyrazol-4-yl)pyrimidin-4-yl)amino)-1-isopropyl-1H-pyrazolo[4,3-c]pyridin-3-yl)-2,7-diazaspiro[4.4]nonan-1-one], the EC50 [1] was 62.6 nM, the Ki [2] was 1 nM and the EC50 [3] was 740 nM. For the same compound, the Ki [4] was 1.1 nM.
With `CC(O)C1CN(c2nn(C(C)C)c3cc(Nc4ccnc(-c5cnn(S(=O)(=O)C6CC6)c5)n4)ncc23)C1` (centres unmarked) [Example 113, 1-(1-(6-(2-(1-(Cyclopropylsulfonyl)-1H-pyrazol-4-yl)pyrimidin-4-ylamino)-1-isopropyl-1H-pyrazolo[4,3-c]pyridin-3-yl)azetidin-3-yl)ethanol] the EC50 [1] was 27.6 nM, the Ki [2] was 0.5 nM and the EC50 [3] was 266 nM. The Ki [4] was 0.6 nM.
For `CC(C)n1nc(N2CC[C@@H](O)C2)c2cnc(Nc3ccnc(-c4cnn(S(=O)(=O)C5CC5)c4)n3)cc21` [Example 114, (R)-1-(6-(2-(1-(Cyclopropylsulfonyl)-1H-pyrazol-4-yl)pyrimidin-4-ylamino)-1-isopropyl-1H-pyrazolo[4,3-c]pyridin-3-yl)pyrrolidin-3-ol], the EC50 [1] was 5.6 nM, the Ki [2] was 0.7 nM and the EC50 [3] was 190 nM. The Ki [4] was 0.8 nM.
`CC(C)n1nc(N2CCC3(CNC(=O)C3)C2)c2cnc(Nc3ccnc(-c4cnn(S(=O)(=O)C5CC5)c4)n3)cc21` (centres unmarked) [Example 115, 7-(6-((2-(1-(Cyclopropylsulfonyl)-1H-pyrazol-4-yl)pyrimidin-4-yl)amino)-1-isopropyl-1H-pyrazolo[4,3-c]pyridin-3-yl)-2,7-diazaspiro[4.4]nonan-3-one] was tested, and the EC50 [1] was 221 nM, the Ki [2] was 0.9 nM and the EC50 [3] was 1790 nM. The Ki [4] was 1.1 nM.
`CC(C)n1nc(NC(=O)C(C)(C)O)c2cnc(Nc3ccnc(-c4cnn(S(=O)(=O)C5CC5)c4)n3)cc21` [Example 116, N-(6-(2-(1-(Cyclopropylsulfonyl)-1H-pyrazol-4-yl)pyrimidin-4-ylamino)-1-isopropyl-1H-pyrazolo[4,3-c]pyridin-3-yl)-2-hydroxy-2-methylpropanamide] gave an EC50 [1] of 629 nM, a Ki [2] of 2 nM and an EC50 [3] of 2080 nM. The Ki [4] was 2.6 nM.
Compound `CC(C)n1nc(N2CC(N3CCOCC3)C2)c2cnc(Nc3ccnc(-c4cnn(S(=O)(=O)C5CC5)c4)n3)cc21` [Example 117, N-(2-(1-(Cyclopropylsulfonyl)-1H-pyrazol-4-yl)pyrimidin-4-yl)-1-isopropyl-3-(3-morpholinoazetidin-1-yl)-1H-pyrazolo[4,3-c]pyridin-6-amine] has an EC50 [1] of 54.9 nM, a Ki [2] of 1.1 nM and an EC50 [3] of 432 nM. For the same compound, the Ki [4] was 1.3 nM.
Compound `CCN1CCN(c2nn(C(C)C)c3cc(Nc4ccnc(-c5cnn(S(=O)(=O)C6CC6)c5)n4)ncc23)CC1` [Example 118, N-(2-(1-(Cyclopropylsulfonyl)-1H-pyrazol-4-yl)pyrimidin-4-yl)-3-(4-ethylpiperazin-1-yl)-1-isopropyl-1H-pyrazolo[4,3-c]pyridin-6-amine] has an EC50 [1] of 134 nM, a Ki [2] of 1.1 nM and an EC50 [3] of 1010 nM. It also gave a Ki [4] of 1.4 nM.
`CC(C)n1nc(N2CCC3(COC3)C2)c2cnc(Nc3ccnc(-c4cnn(S(=O)(=O)C5CC5)c4)n3)cc21` [Example 120, N-(2-(1-(Cyclopropylsulfonyl)-1H-pyrazol-4-yl)pyrimidin-4-yl)-1-isopropyl-3-(2-oxa-6-azaspiro[3.4]octan-6-yl)-1H-pyrazolo[4,3-c]pyridin-6-amine] was tested, and the EC50 [1] was 32.8 nM, the Ki [2] was 1.3 nM and the EC50 [3] was 431 nM. It also gave a Ki [4] of 1.4 nM.
`CC(C)n1nc(N2CC(CC#N)C2)c2cnc(Nc3ccnc(-c4cnn(S(=O)(=O)C5CC5)c4)n3)cc21` [Example 121, 2-(1-(6-(2-(1-(Cyclopropylsulfonyl)-1H-pyrazol-4-yl)pyrimidin-4-ylamino)-1-isopropyl-1H-pyrazolo[4,3-c]pyridin-3-yl)azetidin-3-yl)acetonitrile] showed an EC50 [1] of 19.6 nM, a Ki [2] of 0.7 nM and an EC50 [3] of 184 nM. For the same compound, the Ki [4] was 0.8 nM.
For `CC(C)n1nc(N2CC(C)(CO)C2)c2cnc(Nc3ccnc(-c4cnn(S(=O)(=O)C5CC5)c4)n3)cc21` [Example 122, (1-(6-(2-(1-(Cyclopropylsulfonyl)-1H-pyrazol-4-yl)pyrimidin-4-ylamino)-1-isopropyl-1H-pyrazolo[4,3-c]pyridin-3-yl)-3-methylazetidin-3-yl)methanol], the EC50 [1] was 87.8 nM, the Ki [2] was 1 nM and the EC50 [3] was 620 nM. For the same compound, the Ki [4] was 1.2 nM.
`CC(C)n1nc(N2CC[C@H](O)C2)c2cnc(Nc3ccnc(-c4cnn(S(=O)(=O)C5CC5)c4)n3)cc21` [Example 123, (S)-1-(6-(2-(1-(Cyclopropylsulfonyl)-1H-pyrazol-4-yl)pyrimidin-4-ylamino)-1-isopropyl-1H-pyrazolo[4,3-c]pyridin-3-yl)pyrrolidin-3-ol] showed an EC50 [1] of 4.4 nM, a Ki [2] of 0.6 nM and an EC50 [3] of 201 nM. The Ki [4] was 0.6 nM.
Work on `CC(C)n1nc(N2CC(O)(CO)C2)c2cnc(Nc3ccnc(-c4cnn(S(=O)(=O)C5CC5)c4)n3)cc21` [Example 124, 1-(6-(2-(1-(Cyclopropylsulfonyl)-1H-pyrazol-4-yl)pyrimidin-4-ylamino)-1-isopropyl-1H-pyrazolo[4,3-c]pyridin-3-yl)-3-(hydroxymethyl)azetidin-3-ol] yielded an EC50 [1] of 248 nM, a Ki [2] of 0.7 nM and an EC50 [3] of 660 nM. The Ki [4] was 0.7 nM.

Source: patent US9951064B2, “Azaindazole compounds as inhibitors of T790M containing EGFR mutants” (Genentech, Inc., priority 2013, dated 2018)
